Laboratory results: article PMC10115881, “Disrupting the α-synuclein-ESCRT interaction with a peptide inhibitor mitigates neurodegeneration in preclinical models of Parkinson’s disease” (Nature Communications, 2023)

Columns and labels:
Assay type in all cases: cell-based, human
[1] = tested on: A53T a-syn expressing HEK293 cells; test: Cell Titer-Glo cell viability, A53T a-syn expressing cells; details: for cell viability effect of peptides: A53T a-syn, Supp Figure 1A; for Cell viability: A53T, MG132 10 μM, 72 h; for Effect of MIM motif peptides on cell viability in A53T a-syn expressing cells: Supp Figure 1H
Experimental: (§1) Oligonucleotides encoding the specific peptides were synthesized and individually cloned into the pLJM1 nGFP lentiviral vector. HEK293T cells were infected with individual constructs, and cell viability was assessed using Cell Titer-Glo luminescent assay (Promega) at 72 h post infection.
(§2) Cells were trypsinized from subconfluent cultures as described earlier, suspended in culture media, and then seeded into triplicate wells of a 96-well plate (100 µl/well) at a density of 1.5 × 10^4 cells per well with standard culture conditions of 5% CO2 at 37 °C. Cells were infected with lentivirus expressing peptide at a MOI of 5 for 72 h or transfected with plasmid for 72 h. Cell Titer-Glo reagent was added to each well (30 µL), according to the manufacturer’s protocol and […].

A53T a-syn = A53T a-syn protein level in HEK293 cells by immunoblot
Experimental: Infected or transfected cells were scraped from six-well dishes and lysed with lysis buffer (50 mM Tris-HCl pH 7.4, 1% Nonidet P-40, 150 mM NaCl, 1 mM EDTA, 1× protease inhibitor mixture (Sigma)) for 30 min at 4 °C. The insoluble pellet was removed following a 10,000 rpm spin for 5 min at 4 °C. Lysates were analyzed by SDS-PAGE/immunoblot using 4–20% Mini-PROTEAN Tris-glycine gels (Bio-Rad), transferred to polyvinylidene fluoride (PVDF) membranes, and blocked in 5% milk containing PBS-Tween-20 (0.1%) for 1 h. PVDF membranes were then incubated with specified primary antibodies followed by incubation with horseradish peroxidase-conjugated secondary antibodies (anti-mouse HRP-linked, Cell Signaling, catalog #7076, 1:5000; anti-rabbit HRP-linked, Cell Signaling, catalog #7074, 1:5000) and detected using enhanced chemiluminescence (GE Healthcare). Anti-a-syn antibody (clone 42) was obtained from BD Biosciences (catalog #610787, 1:1000). Anti-LAMP1 antibody was obtained from Abcam (catalog #ab24170, 1:500). Anti-beta-actin antibody was obtained from Cell Signaling (13E5) (catalog #4970, 1:1000). Anti-CD63 antibody was obtained from R&D Systems (catalog #MAB50482-SP, 1:1000).

A53T a-syn oligomers [2] = test: Luciferase PCA of A53T a-syn oligomers; details: for Effect on A53T a-syn oligomers: luciferase PCA, n=3
Experimental: as §1
(§3) Tet-off HEK293 cells stably expressing split luciferase-a-syn constructs and tet-off parent HEK293 cell lines were maintained in DMEM supplemented with 10% FBS and 1% pen/strep/glutamine. […] Cells were trypsinized from subconfluent culture and seeded in a 96-well plate at a density of 15,000 cells per well. Cells were incubated overnight at 37 °C in 5% CO2. Cells were transfected with GFP-peptide plasmids. After 6 h of incubation, 20 µL of cell medium was transferred to a black flat-bottomed 96-well plate. Fifty microliters of Working solution (Pierce Gaussia-Firefly Luciferase Dual Assay Kit, Thermo Scientific, 16181) were added into each well containing cell medium. Immediately after adding the reagent, samples were read using a luminometer with a 480 nm filter.

WT a-syn oligomers = test: Luciferase PCA of WT a-syn oligomers; details: for Oligomers %: WT oligomers, luciferase activity; for Effect on WT a-syn oligomers: luciferase PCA
Experimental: as §1, §3

Parent HEK293 cells = test: Cell Titer-Glo cell viability, parent cells; details: for Cell viability: MG132 10 μM, 72 h; for cell viability effect of peptides: Supp Figure 1A;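 on cell viability effect of peptides: measured without MG132 proteasome inhibitor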
Experimental: as §1, §2

[3] = tested on: WT a-syn expressing HEK293 cells; test: Cell Titer-Glo cell viability, WT a-syn expressing cells; details: WT alpha-synuclein; for Cell viability: MG132 10 μM, 72 h; for cell viability effect of peptides: Supp Figure 1A;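 on cell viability effect of peptides: measured without MG132 proteasome inhibitor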
Experimental: as §1, §2

A53T a-syn oligomers [4] = test: Split-YFP PCA/FACS screen of A53T a-syn oligomers
From the text: We used a lentiviral library of 50,549 7-mer peptides enriched in PPI motifs[13] on a green fluorescent protein (GFP) scaffold (Fig. 1A). We infected cells in a pooled format and the amino acid sequence of each peptide served as its own barcode. By using a low multiplicity of infection followed by puromycin selection, each infected cell expressed one unique GFP-peptide. We screened for peptides that reduced a-syn-mediated cytotoxicity or a-syn oligomers in parallel (Fig. 1A). To cause cytotoxicity relevant to PD, we induced proteostatic stress in HEK293 cells by inhibiting the proteasome with MG132 and overexpressing human WT a-syn associated with idiopathic PD in one screen or the more toxic mutant A53T a-syn associated with familial PD in a second screen. This combination of a-syn overexpression and pharmacological proteasome inhibition led to death of most cells, with only those that expressed a protective peptide surviving. By extracting genomic DNA from the surviving cells and amplifying the peptide coding sequences, we identified the protective peptides (Fig. 1A). To detect a-syn oligomers, we used a protein fragment complementation assay (PCA) of a-syn oligomerization in HEK293 cells. In this assay, human A53T a-syn was fused to either the C- or N-terminal half of yellow fluorescent protein (YFP). No fluorescence is detectable while a-syn exists in monomers but, when a-syn oligomerizes, the two halves of YFP come in close enough proximity to form a functional, spontaneously fluorescent protein. […] Our screens yielded 10 hits (Table S1). The hit with the most reads (i.e., the most abundant) was the same peptide in all screens: IPIQLKA (named PDpep1) (Table S1). We validated the cytoprotective effects of PDpep1 in HEK293 cells overexpressing WT or A53T a-syn (Figs. 1B, S1A), as well as its ability to reduce WT or A53T a-syn oligomers in a luciferase-based PCA[18]–[20] compared to a scrambled control peptide (Figs. 1C, S1B).
HEK293T cells (ATCC, CRL-3216) were maintained in DMEM supplemented with 10% FBS and 1% pen/strep/glutamine, and the appropriate selection antibiotics when required. Lentiviruses were made in a 15 cm dish format by transfecting packaging cells (HEK293T) with a three-plasmid system (expression vector, psPAX2 and pMD2.G) and using Polyjet DNA transfection reagent (FroggaBio, SL100688.1). Viral transduction of HEK293T cells were performed with a multiplicity of infection (MOI) of 0.3. Infected cells were selected in puromycin-containing medium to eliminate uninfected cells and three aliquots of cells were collected for sampling of the initial (T0) cell population. Cells were treated with MG132 at concentrations of 0, 10, 25, or 50 µM. For the cell viability screen, surviving cells were collected and gDNA was extracted for identification of peptide inhibitors of cell toxicity. For the inhibition of a-syn aggregation screen, a protein fragment complementation assay (PCA) was used by transfecting cells with split YFP-a-syn constructs following stable expression of the peptides. Cells were sorted based on their YFP fluorescence intensities with a FACSVantage SE cell sorter (BD Bioscience) and gDNA was extracted for identification of peptides.
Cells were harvested by trypsin treatment and centrifuged at 500 × g for 5 min. The pellet was resuspended in ice-cold PBS and centrifuged again. The pellet was then resuspended at a concentration of 4 × 10^6 cells/ml in the sorting buffer, which is PBS containing 100 Kunitz DNase I/ml, 10 μg/ml propidium iodide (Sigma), and 2% FBS. The cells were then sent through a 40 μm filter to remove large clumps and loaded into either a FACScan Flow Cytometer (BD Bioscience) for cell analysis or a FACSVantage SE cell sorter (BD Bioscience) for cell sorting. The cells with positive propidium iodide staining (i.e., dead cells) were first eliminated from the analysis. […]

| Substance | cell viability effect of peptides ([1]; replicate 1) | cell viability effect of peptides ([1]; replicate 2) | cell viability effect of peptides ([1]; replicate 3) | Cell viability ([1]; replicate 1) | Cell viability ([1]; replicate 2) | Cell viability ([1]; replicate 3) | Effect of MIM motif peptides on cell viability in A53T a-syn expressing cells ([1]; replicate 1) | Effect of MIM motif peptides on cell viability in A53T a-syn expressing cells ([1]; replicate 2) | Effect of MIM motif peptides on cell viability in A53T a-syn expressing cells ([1]; replicate 3) | Effect on A53T a-syn oligomers (A53T a-syn oligomers [2]) | A53T a-syn oligomers as measured by luciferase activity (A53T a-syn oligomers [2]; replicate 1) | A53T a-syn oligomers as measured by luciferase activity (A53T a-syn oligomers [2]; replicate 2) | A53T a-syn oligomers as measured by luciferase activity (A53T a-syn oligomers [2]; replicate 3) | Oligomers % (WT a-syn oligomers; column 1) | Oligomers % (WT a-syn oligomers; column 2) | Oligomers % (WT a-syn oligomers; column 3) | Oligomers % (WT a-syn oligomers; column 4) | Oligomers % (WT a-syn oligomers; column 5) | Effect on WT a-syn oligomers (WT a-syn oligomers) | Cell viability (Parent HEK293 cells; replicate 1) | also measured |
| --- | --- | --- | --- | --- | --- | --- | --- | --- | --- | --- | --- | --- | --- | --- | --- | --- | --- | --- | --- | --- | --- |
| CHMP2B 1-199: truncated version of CHMP2B (amino acids 1–199), in which the MIM is removed |  |  |  |  |  |  |  |  |  |  |  |  |  |  |  |  |  |  |  |  | Effect on cell survival/viability ([1]; A53T a-syn cells): rescues toxicity; Effect on A53T a-syn protein level (A53T a-syn): reduction in a-syn |
| EIERQLKALG [PDpep1.2] | 14600 | 15600 | 14800 | 7500 | 6200 | 6500 | 6674 | 6850 | 6527 | significant reduction in A53T a-syn oligomers | 251502 | 281836 | 251716 | 104.991% | 81.7556% | 72.2892% | 74.8709% | 62.3924% | significant reduction in a-syn oligomers | 4500 | Cell viability (Parent HEK293 cells; replicate 2): 5400; Cell viability (Parent HEK293 cells; replicate 3): 4100; cell viability effect of peptides (Parent HEK293 cells; replicate 1): 12600; cell viability effect of peptides (Parent HEK293 cells; replicate 2): 12500; cell viability effect of peptides (Parent HEK293 cells; replicate 3): 13000; Cell viability ([3]; replicate 1): 4000; Cell viability ([3]; replicate 2): 4200; Cell viability ([3]; replicate 3): 4500; cell viability effect of peptides ([3]; replicate 1): 13200; cell viability effect of peptides ([3]; replicate 2): 13400; cell viability effect of peptides ([3]; replicate 3): 13100 |
| IERQLKA [PDpep1.1] | 13600 | 13400 | 12400 | 6400 | 6200 | 6100 | 6738 | 6300 | 6152 | significant reduction in A53T a-syn oligomers | 261554 | 321472 | 271592 | 106.713% | 81.3253% | 66.2651% | 77.4527% | 64.5439% | significant reduction in a-syn oligomers | 3550 | Cell viability (Parent HEK293 cells; replicate 2): 3700; Cell viability (Parent HEK293 cells; replicate 3): 3800; cell viability effect of peptides (Parent HEK293 cells; replicate 1): 12600; cell viability effect of peptides (Parent HEK293 cells; replicate 2): 12000; cell viability effect of peptides (Parent HEK293 cells; replicate 3): 12700; Cell viability ([3]; replicate 1): 4800; Cell viability ([3]; replicate 2): 4300; Cell viability ([3]; replicate 3): 4100; cell viability effect of peptides ([3]; replicate 1): 13800; cell viability effect of peptides ([3]; replicate 2): 13400; cell viability effect of peptides ([3]; replicate 3): 12900 |
| VYLDILG [library 7-mer, oligomers screen] |  |  |  |  |  |  |  |  |  |  |  |  |  |  |  |  |  |  |  |  | Reads GFP High (A53T a-syn oligomers [4]): 1; Reads GFP Inter (A53T a-syn oligomers [4]): 0; Reads GFP Neg (A53T a-syn oligomers [4]): 59; Reads Ratio (A53T a-syn oligomers [4]): 30.55 |
| WPRYPHI [library 7-mer, oligomers screen] |  |  |  |  |  |  |  |  |  |  |  |  |  |  |  |  |  |  |  |  | Reads GFP High (A53T a-syn oligomers [4]): 1; Reads GFP Inter (A53T a-syn oligomers [4]): 0; Reads GFP Neg (A53T a-syn oligomers [4]): 92; Reads Ratio (A53T a-syn oligomers [4]): 47.36 |
